For 19 compounds, pest or weed control and mortality results are on record in US20250228239A1, “MOLECULES HAVING PESTICIDAL UTILITY, AND INTERMEDIATES, COMPOSITIONS, AND PROCESSES, RELATED THERETO” (priority 2024, published 2025).

Read-outs that look alike come from different tables or passages of the source.

Assay [1] deals with Cabbage Looper (Trichoplusia ni, TRIPNI). Nature of the assay: Bioassays on Cabbage Looper (CL), 128-well diet tray assay. Type of assay: in vivo. The note with it: Trichoplusia ni. The essentials:
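Second-instar larvae (1–5 per well) placed on artificial diet surface-treated with 50 μg/cm^2 test molecule applied in 90:10 acetone-water and dried. Held at 25° C., 14:10 light-dark, for five to seven days. Percent mortality scored per well and averaged over eight wells.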

Assay [2] deals with Beet Armyworm (Spodoptera exigua, LAPHEG). Nature of the assay: Bioassays on Beet Armyworm (BAW), 128-well diet tray assay. The format is in vivo. The note with it: Spodoptera exigua. In outline: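 One to five second-instar larvae per well on artificial diet surface-treated with 50 μg/cm^2 test molecule (applied in 90:10 acetone-water, dried), eight wells per compound. Trays held vented at 25° C., 14:10 light-dark for five to seven days; percent mortality averaged over the eight wells.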

The mark [3] stands for this setting: Table ABC: Biological Results, species CL, read-out: CL.
The mark [4] stands for this setting: Table ABC: Biological Results, species BAW, read-out: BAW.
The mark [5] stands for this setting: Cabbage Looper, rating class, read-out: CL.
[6] abbreviates: Beet Armyworm, rating class, read-out: BAW.
The mark [7] stands for this setting: Cabbage Looper, Table ABC / ABC-DP rating, read-out: CL rating.
Setting [8] is: Beet Armyworm, Table ABC / ABC-DP rating, read-out: BAW rating.

Consider `O=C(Nc1c(F)ccc(NC(=O)C(F)(F)F)c1F)c1cc(NC(=O)[C@H]2[C@H](c3ccc(F)c(C(F)(F)F)c3)C2(Cl)Cl)cc(F)c1Cl` [F1346, 2-Chloro-5-((1R,3R)-2,2-dichloro-3-(4-fluoro-3-(trifluoromethyl)phenyl)cyclopropane-1-carboxamido)-N-(2,6-difluoro-3-(2,2,2-trifluoroacetamido)phenyl)-3-fluorobenzamide], for which the pest or weed control at 50 µg/cm2 in assay [1] (setting [3]) and in assay [2] (setting [4]) was 50 to 100% each time.

`Cc1cc(NC(=O)[C@H]2[C@H](c3ccc(Cl)c(Cl)c3)C2(Cl)Cl)cc(C(=O)Nc2ccc(F)c(NC(=O)C(F)(F)F)c2F)c1Cl` [F1485, 2-Chloro-5-((1R,3R)-2,2-dichloro-3-(3,4-dichlorophenyl)cyclopropane-1-carboxamido)-N-(2,4-difluoro-3-(2,2,2-trifluoroacetamido)phenyl)-3-methylbenzamide]: the pest or weed control at 50 µg/cm2 in assay [1] (setting [5]) and in assay [2] (setting [6]) was 50 to 100% each time.

`Cc1cc(NC(=O)[C@H]2[C@H](c3ccc(F)c(C(F)(F)F)c3)C2(Cl)Cl)cc(C(=O)Nc2c(F)ccc(NC(=O)C(F)F)c2F)c1Cl` [F1468, 2-Chloro-5-((1R,3R)-2,2-dichloro-3-(4-fluoro-3-(trifluoromethyl)phenyl)cyclopropane-1-carboxamido)-N-(3-(2,2-difluoroacetamido)-2,6-difluorophenyl)-3-methylbenzamide]: the pest or weed control at 50 µg/cm2 in assay [1] (setting [5]) and in assay [2] (setting [6]) was 50 to 100% each time.

For `CC(=O)Nc1ccc(NC(=O)c2cc(NC(=O)[C@H]3[C@H](c4ccc(F)c(Cl)c4)C3(Cl)Cl)cc(Cl)c2F)cc1` (relative stereo) [F1197, trans-N-(4-Acetamidophenyl)-3-chloro-5-(2,2-dichloro-3-(3-chloro-4-fluorophenyl)cyclopropane-1-carboxamido)-2-fluorobenzamide], the pest or weed control at 50 µg/cm2 in assay [1] (setting [3]) and in assay [2] (setting [4]) was 50 to 100% each time.

For `O=C(Nc1c(F)ccc(NC(=O)C(F)F)c1F)c1cc(NC(=O)[C@H]2[C@H](c3cc(Cl)cc(Cl)c3)C2(Cl)Cl)cc(F)c1Cl` [F1341, 2-Chloro-5-((1R,3R)-2,2-dichloro-3-(3,5-dichlorophenyl)cyclopropane-1-carboxamido)-N-(3-(2,2-difluoroacetamido)-2,6-difluorophenyl)-3-fluorobenzamide], the pest or weed control at 50 µg/cm2 in assay [1] (setting [3]) and in assay [2] (setting [4]) was 50 to 100% each time.

For the compound `CC(C)(C)OC(=O)Nc1c(F)ccc(NC(=O)c2cc(NC(=O)[C@H]3[C@H](c4cc(Br)cc(C(F)(F)F)c4)C3(Cl)Cl)ccc2Cl)c1F` (relative stereo) [F1073, trans-tert-Butyl-(3-(5-(3-(3-bromo-5-(trifluoromethyl)phenyl)-2,2-dichlorocyclopropane-1-carboxamido)-2-chlorobenzamido)-2,6-difluorophenyl)carbamate], the pest or weed control at 50 µg/cm2 in assay [1] (setting [3]) and in assay [2] (setting [4]) was 50 to 100% in each case.

On to `Nc1c(F)ccc(NC(=O)c2cc(NC(=O)[C@H]3[C@H](c4ccc(Cl)c(Cl)c4)C3(Cl)Cl)cc(F)c2Cl)c1F` [F1284, N-(3-Amino-2,4-difluorophenyl)-2-chloro-5-((1R,3R)-2,2-dichloro-3-(3,4-dichlorophenyl)cyclopropane-1-carboxamido)-3-fluorobenzamide], for which the pest or weed control at 50 µg/cm2 in assay [1] (setting [3]) and in assay [2] (setting [4]) was 50 to 100% each time.

On to `O=C(Nc1c(F)ccc(NC(=O)C(F)(F)F)c1F)c1cc(NC(=O)[C@H]2[C@H](c3ccc(F)c(C(F)(F)F)c3)C2(Cl)Cl)ccc1Cl` [F1538, 2-Chloro-5-((1R,3R)-2,2-dichloro-3-(4-fluoro-3-(trifluoromethyl)phenyl)cyclopropane-1-carboxamido)-N-(2,6-difluoro-3-(2,2,2-trifluoroacetamido)phenyl)benzamide], for which the pest or weed control at 50 µg/cm2 in assay [1] (setting [5]) and in assay [2] (setting [6]) was 50 to 100% each time.

With `CC(=O)Nc1ccc(F)c(NC(=O)c2cc(NC(=O)[C@H]3[C@H](c4ccc(Cl)c(Cl)c4)C3(Cl)Cl)ccc2Cl)c1F` [F1536, N-(3-Acetamido-2,6-difluorophenyl)-2-chloro-5-((1R,3R)-2,2-dichloro-3-(3,4-dichlorophenyl)cyclopropane-1-carboxamido)benzamide], the pest or weed control at 50 µg/cm2 in assay [1] (setting [5]) and in assay [2] (setting [6]) was 50 to 100% throughout.

With `O=C(Nc1ccc(F)c(NC(=O)C(F)(F)F)c1F)c1cc(NC(=O)[C@H]2[C@H](c3cc(Cl)c(Cl)c(Cl)c3)C2(Cl)Cl)cc(F)c1Cl` [F1334, 2-Chloro-5-((1R,3R)-2,2-dichloro-3-(3,4,5-trichlorophenyl)cyclopropane-1-carboxamido)-N-(2,4-difluoro-3-(2,2,2-trifluoroacetamido)phenyl)-3-fluorobenzamide], the pest or weed control at 50 µg/cm2 in assay [1] (setting [3]) and in assay [2] (setting [4]) was 50 to 100% in each case.

As to `O=C(Nc1c(F)ccc(NC(=O)C2CCCO2)c1F)c1cc(NC(=O)[C@H]2[C@H](c3cc(Cl)c(Cl)c(Cl)c3)C2(Cl)Cl)cc(F)c1F` (stereo partly drawn) [F1778, N-(3-(5-((1R,3R)-2,2-Dichloro-3-(3,4,5-trichlorophenyl)cyclopropane-1-carboxamido)-2,3-difluorobenzamido)-2,4-difluorophenyl)tetrahydrofuran-2-carboxamide], the pest or weed control at 50 µg/cm2 in assay [1] (setting [7]) and in assay [2] (setting [8]) was 50 to 100% in each case.

For `CC(=O)Nc1ccc(NC(=O)c2c(F)ccc(NC(=O)[C@H]3[C@H](c4ccc(F)c(Cl)c4)C3(Cl)Cl)c2F)cc1` (relative stereo) [F1101, trans-N-(4-Acetamidophenyl)-3-(2,2-dichloro-3-(3-chloro-4-fluorophenyl)cyclopropane-1-carboxamido)-2,6-difluorobenzamide], the pest or weed control at 50 µg/cm2 in assay [1] (setting [3]) and in assay [2] (setting [4]) was 50 to 100% throughout.

Consider `O=C(NNC(=O)C1CC1(F)F)c1cc(NC(=O)[C@H]2[C@H](c3cc(Cl)cc(Cl)c3)C2(Cl)Cl)ccc1Cl` (relative stereo) [F2517, trans-2,2-Dichloro-N-(4-chloro-3-(2-(2,2-difluorocyclopropane-1-carbonyl)hydrazine-1-carbonyl)phenyl)-3-(3,5-dichlorophenyl)cyclopropane-1-carboxamide], for which the pest or weed control at 50 µg/cm2 in assay [1] (setting [7]) and in assay [2] (setting [8]) was 50 to 100% each time.

Turning to `O=C(CCBr)Nc1c(F)ccc(NC(=O)c2cc(NC(=O)[C@H]3[C@H](c4ccc(F)c(C(F)(F)F)c4)C3(Cl)Cl)ccc2Cl)c1F` [F1851, N-(3-(3-Bromopropanamido)-2,4-difluorophenyl)-2-chloro-5-((1R,3R)-2,2-dichloro-3-(4-fluoro-3-(trifluoromethyl)phenyl)cyclopropane-1-carboxamido)benzamide], the pest or weed control at 50 µg/cm2 in assay [1] (setting [7]) and in assay [2] (setting [8]) was 50 to 100% throughout.

Regarding `O=C(Nc1ccc(F)c(Br)c1F)c1cc(NC(=O)[C@H]2[C@H](c3cc(Cl)cc(Cl)c3)C2(Cl)Cl)ccc1Cl` (relative stereo) [F1307, trans-N-(3-Bromo-2,4-difluorophenyl)-2-chloro-5-(2,2-dichloro-3-(3,5-dichlorophenyl)cyclopropane-1-carboxamido)benzamide], the pest or weed control at 50 µg/cm2 in assay [1] (setting [3]) and in assay [2] (setting [4]) was 50 to 100% in each case.

With `O=C(NN=CC1CC1)c1cc(NC(=O)[C@H]2[C@H](c3cc(Cl)cc(Cl)c3)C2(Cl)Cl)ccc1Cl` (relative stereo) [F3007, trans-2,2-Dichloro-N-(4-chloro-3-(2-(cyclopropylmethylene)hydrazine-1-carbonyl)phenyl)-3-(3,5-dichlorophenyl)cyclopropane-1-carboxamide], the mortality at 50 µg/cm2 fell in the range of 50 to 100% in assay [1] (168 h, second instar larvae, 50 μg/cm^2 of test molecule on artificial diet, 25° C., five to seven days, average of eight wells, read-out: CL % Control (or Mortality) rating) and 50 to 100% in assay [2] (168 h, second instar larvae, 50 μg/cm^2 of test molecule on artificial diet, 25° C., five to seven days, average of eight wells, read-out: BAW % Control (or Mortality) rating). In addition, the pest or weed control at 50 µg/cm2 in assay [1] (setting [7]) and in assay [2] (setting [8]) was 50 to 100% throughout.

In the case of `Nc1ccc(F)c(NC(=O)c2cc(NC(=O)[C@H]3[C@H](c4cc(Cl)c(Cl)c(Cl)c4)C3(Cl)Cl)cc(F)c2F)c1F` [F1770, N-(3-Amino-2,6-difluorophenyl)-5-((1R,3R)-2,2-dichloro-3-(3,4,5-trichlorophenyl)cyclopropane-1-carboxamido)-2,3-difluorobenzamide], the pest or weed control at 50 µg/cm2 in assay [1] (setting [7]) and in assay [2] (setting [8]) was 50 to 100% each time.

On to `O=C(Nc1ccc(F)c(NC(=O)C(F)F)c1F)c1cc(NC(=O)[C@H]2[C@H](c3ccc(F)c(C(F)(F)F)c3)C2(Cl)Cl)cc(F)c1Cl` [F1289, 2-Chloro-5-((1R,3R)-2,2-dichloro-3-(4-fluoro-3-(trifluoromethyl)phenyl)-cyclopropane-1-carboxamido)-N-(3-(2,2-difluoroacetamido)-2,4-difluorophenyl)-3-fluorobenzamide], for which the pest or weed control at 50 µg/cm2 in assay [1] (setting [3]) and in assay [2] (setting [4]) was 50 to 100% each time.

For the compound `Nc1c(F)ccc(NC(=O)c2cc(NC(=O)[C@H]3[C@@H](c4cc(F)c(Cl)c(C(F)(F)F)c4)C3(Cl)Cl)ccc2Cl)c1F` (relative stereo) [F1168, cis-N-(3-Amino-2,4-difluorophenyl)-2-chloro-5-(2,2-dichloro-3-(4-chloro-3-fluoro-5-(trifluoromethyl)phenyl)cyclopropane-1-carboxamido)benzamide], the pest or weed control at 50 µg/cm2 in assay [1] (setting [3]) and in assay [2] (setting [4]) was 50 to 100% throughout.
